From US12377054B2, “Targeting the innate immune system to induce long-term tolerance and to resolve macrophage accumulation in atherosclerosis” (Icahn School of Medicine at Mount Sinai, priority 2016, dated 2025)

What was measured:
cardiac allografts = assay: Heart allograft survival (BALB/c into C57BL/6); type: in vivo, mice; conditions: over a 50-day period, three doses 5 mg/kg rapamycin
Description: Lastly, nanoimmunotherapy treatment's capacity to prevent organ rejection and prolong allograft survival was evaluated. Balb/c (H2^d) donor cardiac allografts were transplanted into fully allogeneic C57Bl/6 (H2) recipients treated with: (1) placebo. […] To assess graft survival, recipients underwent abdominal palpation until cardiac contractions completely ceased.
BALB/c hears were transplanted as fully vascularized heterotopic grafts into C57BL/6 mice as previously described^45. […] Cardiac allograft survival was subsequently assessed through daily palpation. Rejection was defined as the complete cessation of cardiac contraction and was confirmed by direct visualization at laparotomy. Graft survival was compared among groups using Kaplan-Meier survival analysis.

[1] = mouse, in vivo, po
myeloid cell compartment = assay: Flow cytometry of leukocytes and myeloid cell compartment in blood, spleen and allograft of heart transplant recipients; type: in vivo, mice; conditions: six days after transplantation
Description: The leukocyte population was profiled and, more extensively, the myeloid cell compartment, including neutrophils. Mo/MΦ and DC, in the blood, spleens and allografts of mice receiving placebo, oral rapamycin (Oral-Ra) and mTOR-HDL treatments, where the treatment regimen involved three intravenous mTOR-HDL injections, on the day of, as well as at two and five days post transplantation.
Mo/MΦ comprise two different subsets (Ly-6C^hi and Ly-6C^lo) with district migratory properties^23. Six days after transplantation, untreated and Oral-Ra-treated mice had increased numbers of accumulated myeloid cells in their blood, spleen and heart allografts (FIG. 2B and FIG. 9A). Further, the elevated Mo/MΦ populations contained high percentages of inflammatory Ly6C^hi monocytes (FIGS. 9A and 2B). […] The Mo/MΦ subset proportions in the spleen and transplanted organs reflected the levels in peripheral blood (FIG. 1E).
Mouse hearts were rinsed in situ with HBSS with 1% heparin. Explanted hearts were cut into small pieces and digested for 40 minutes at 37° C. with 400 U/ml collagenase IV (Sigma-Aldrich), 10 mM HEPES (Cellgro) and 0.01% DNase 1 (MP Biomedicals) in HBSS (Cellgro). Digested suspensions were passed through a nylon mesh and centrifuged, and the cell pellet was re-suspended in complete HBSS, stained and analyzed by flow cytometry (BD LSR-II; BD Biosciences).
For myeloid cell staining, fluorochrome-conjugated mAbs specific to mouse CD45 (clone 30-F11). CD11b (clone MI/70), CD11c (clone N418), F4/80 (clone CI:A3.1). Ly-6C (clone HK1.4) and corresponding isotype controls were purchased from eBioscience. Ly-6G (clone 1A8) mAb was purchased from Biolegend. F4/80 (clone CI:A3.1) was purchased from AbD Serotec. […] Flow cytometric analysis was performed on LSR II (BD Biosciences) and analyzed with FlowJo software (Tree Star, Inc.). Results are expressed as percentage of cells staining or cells counting (cells per milliliter) above background. mAbs were titered at regular intervals during the course of these studies to ensure the use of saturating concentrations. […]

[2] = test system: RAW 264.7 cell line of murine macrophages; assay: In vitro BrdU incorporation in RAW 264.7 macrophages; type: cell-based; conditions: 24 hours

## CO[C@H]1C[C@@H]2CC[C@@H](C)[C@@](O)(O2)C(=O)C(=O)N2CCCC[C@H]2C(=O)O[C@H]([C@H](C)C[C@@H]2CC[C@@H](O)[C@H](OC)C2)CC(=O)[C@H](C)/C=C(\C)[C@@H](O)[C@@H](OC)C(=O)[C@H](C)C[C@H](C)/C=C/C=C/C=C/1C [Oral-Ra, rapamycin]
Cardiac allografts
  allograft survival: 35%
[1]
  kidney toxicity parameters: statistical differences between Oral-Ra and mTOR-HDL
Myeloid cell compartment
  Ly-C^lo monocytes in blood: 13%
  Ly-C^lo monocytes in heart allografts: 18%
  Ly-C^lo monocytes in spleen: 44%

## Cc1ccc(C)c(N/C=C/C(=O)c2ccccc2)c1 [compound 6877002, (2E)-1-phenyl-3-(2,5-dimethylanilino)-2-propen-1one]
[2]
  proliferation rate of RAW 264.7 macrophages: did not affect the proliferation rate
